Experimental data published in US20050208146A1, “Novel dosage and administration method for oral camptosar” (Pfizer Inc, priority 2003, published 2005).
Several values for one entry are separate records, joined by “and”; a condition that tells them apart may be missing. Equal entries are not always repeated. Entries after “also recorded” stand apart in the source; their conditions may differ.

Tests used:
[1] = Pharmacokinetics and absolute bioavailability at MTD, IV/oral cross-over in patients; conditions: for AUC(0-inf): 60 mg/m2, AUC0-inf; for Cmax: 60 mg/m2, Cmax
Procedure: (§1) The protocol had two stages, Stage A directed to dose escalation and Stage B directed to pharmacokinetics and bioavailability measurement. Patients were treated as in Table 3. […] MTD is defined as the dose level below which 2/3 or preferably 2/6 patients experience DLT.
(§2) In addition, evidence of antitumor activity can be evaluated.

[2] = Comparison of exposure over 6-week period, oral vs IV irinotecan
[3] = Dose escalation to MTD, DLT and grade 3/4 toxicities of oral irinotecan semi-solid matrix capsules in patients with solid tumors; type: in vivo, human; conditions: for DLT (kind and grade) / Pts with DLT: first cycle
Procedure: Patients were treated as in Table 3. […]
Oral irinotecan can be formulated as follows.
The patients received starting doses of 50 (n=7), 60 (n=32), or 70 (n=4) mg/m^2/d. […] See also Tables 6 and 7.

[4] = tested on: solid tumors; assay: Best overall tumor response in patients treated with oral irinotecan; type: in vivo, human; conditions: oral irinotecan daily x5 q 3 weeks
Procedure: as §1, §2

[5] = clinical; conditions: human
[6] = plasma, irinotecan 60 mg/m^2 IV, N=14
[7] = plasma, irinotecan 60 mg/m^2 PO, N=14
[8] = IV Irinotecan, weekly x 4 q 6 weeks x 1 cycle, N=99
[9] = All Cycles, 60 mg/m^2/day, N=32

For `CCc1c2c(nc3ccc(O)cc13)-c1cc3c(c(=O)n1C2)COC(=O)[C@]3(O)CC` [SN-38, 7-ethyl-10-hydroxycamptothecin], the “AUC0-inf, mean ± SD” value ([1]; irinotecan 60 mg/m^2 IV, N=14) was 167 ± 77.8 ng·h/mL, the “AUC0-inf, median” value ([1]; irinotecan 60 mg/m^2 IV, N=14) was 169 ng·h/mL and the “AUC0-inf, range” value ([1]; irinotecan 60 mg/m^2 IV, N=14) was 55.1 to 358 ng·h/mL. For the same compound, the “t1/2, mean ± SD” value ([1]; irinotecan 60 mg/m^2 IV, N=14) was 22.95 ± 19.41 h, the “t1/2, median” value ([1]; irinotecan 60 mg/m^2 IV, N=14) was 19.31 h and the “t1/2, range” value ([1]; irinotecan 60 mg/m^2 IV, N=14) was 8.63 to 94.9 h. The “tmax, median” value ([1]; irinotecan 60 mg/m^2 IV, N=14) was 0.5 h, the “tmax, range” value ([1]; irinotecan 60 mg/m^2 IV, N=14) was 0 to 2.0 h and the “tmax, mean ± SD” value ([1]; irinotecan 60 mg/m^2 IV, N=14, measured from start of 1.5-h infusion) was 2.18 ± 1.99^2 h. For the same compound, the “PO/IV SN-38 AUC Ratio, Mean ± SD” value ([1]; irinotecan 60 mg/m^2 PO vs IV) was 0.504±0.195, the “PO/IV SN-38 AUC Ratio, Median” value ([1]; irinotecan 60 mg/m^2 PO vs IV) was 0.447 and the “PO/IV SN-38 AUC Ratio, range” value ([1]; irinotecan 60 mg/m^2 PO vs IV) was 0.257-0.945. For the same compound, the “AUC0-inf, mean ± SD” value ([1]; irinotecan 60 mg/m^2 PO, N=14) was 84.1 ± 54.7 ng·h/mL, the “AUC0-inf, median” value ([1]; irinotecan 60 mg/m^2 PO, N=14) was 70.7 ng·h/mL and the “AUC0-inf, range” value ([1]; irinotecan 60 mg/m^2 PO, N=14) was 22.8 to 223.6 ng·h/mL. For the same compound, the “t1/2, mean ± SD” value ([1]; irinotecan 60 mg/m^2 PO, N=14) was 14.2 ± 5.87 h, the “t1/2, median” value ([1]; irinotecan 60 mg/m^2 PO, N=14) was 13.4 h and the “t1/2, range” value ([1]; irinotecan 60 mg/m^2 PO, N=14) was 4.7 to 25.7 h. The “tmax, mean ± SD” value ([1]; irinotecan 60 mg/m^2 PO, N=14) was 2.97 ± 2.21 h, the “tmax, median” value ([1]; irinotecan 60 mg/m^2 PO, N=14) was 2 h and the “tmax, range” value ([1]; irinotecan 60 mg/m^2 PO, N=14) was 1.0 to 10.0 h. The “AUC of SN-38 following oral irinotecan as % of the value from an equivalent IV dose (mean±SD)” value ([1]; oral vs equivalent IV dose of irinotecan) was 50±20%, the “Cmax, mean ± SD” value [1, 6] was 15.94 ± 7.83 ng/mL and the “Cmax, median” value [1, 6] was 13.8 ng/mL. The “Cmax, range” value [1, 6] was 7.26 to 36.9 ng/mL, the “Cmax, mean ± SD” value [1, 7] was 7.17 ± 3.90 ng/mL and the “Cmax, median” value [1, 7] was 3.91 ng/mL. The “Cmax, range” value [1, 7] was 1.31 to 14.8 ng/mL, the “AUC0-inf, exposure over 6-week period” value [2, 8] was 1,068 ng h/ml and the Cmax [2, 8] was 28 ng/mL. The Cmax ([2]; Oral Irinotecan, daily x 5 q 3 weeks x 2 cycles, N=14) was 7.2 ng/mL.

In the case of `CCc1c2c(nc3ccc(OC(=O)N4CCC(N5CCCCC5)CC4)cc13)-c1cc3c(c(=O)n1C2)COC(=O)[C@]3(O)CC` [irinotecan, 7-ethyl-10-[4-(1-piperidino)-1-piperidino]-carbonyloxycamptothecin], the “Grade 3 and 4 Diarrhea” value ([3]; All Cycles, 50 mg/m^2/day, N=7) is reported as 14%, the “Grade 3 and 4 Nausea” value ([3]; All Cycles, 50 mg/m^2/day, N=7) is reported as 14% and the “Grade 3 and 4 Diarrhea” value [3, 9] is reported as 16%. The “Grade 3 and 4 Nausea” value [3, 9] was 9%, the “Grade 3 and 4 Neutropenia” value [3, 9] was 9% and the “Grade 3 and 4 Neutropenic Fever” value [3, 9] was 3%. For the same compound, the “Grade 3 and 4 Vomiting” value [3, 9] was 12%, the “Grade 3 and 4 Diarrhea” value ([3]; All Cycles, 70 mg/m^2/day, N=4) was 50% and the “Grade 3 and 4 Nausea” value ([3]; All Cycles, 70 mg/m^2/day, N=4) was 3%. For the same compound, the “Grade 3 and 4 Neutropenia” value ([3]; All Cycles, 70 mg/m^2/day, N=4) was 25%, the “Grade 3 and 4 Neutropenic Fever” value ([3]; All Cycles, 70 mg/m^2/day, N=4) was 25% and the “Grade 3 and 4 Vomiting” value ([3]; All Cycles, 70 mg/m^2/day, N=4) was 3%. For the same compound, the “Grade 3 and 4 Diarrhea” value ([3]; Cycle 1, 50 mg/m^2/day, N=7) was 14%, the “Grade 3 and 4 Nausea” value ([3]; Cycle 1, 50 mg/m^2/day, N=7) was 14% and the “Grade 3 and 4 Diarrhea” value ([3]; Cycle 1, 60 mg/m^2/day, N=32) was 13%. The “Grade 3 and 4 Nausea” value ([3]; Cycle 1, 60 mg/m^2/day, N=32) was 6%, the “Grade 3 and 4 Neutropenia” value ([3]; Cycle 1, 60 mg/m^2/day, N=32) was 3% and the “Grade 3 and 4 Vomiting” value ([3]; Cycle 1, 60 mg/m^2/day, N=32) was 9%. For the same compound, the “Grade 3 and 4 Diarrhea” value ([3]; Cycle 1, 70 mg/m^2/day, N=4) was 50%, the “Grade 3 and 4 Neutropenia” value ([3]; Cycle 1, 70 mg/m^2/day, N=4) was 25% and the “Grade 3 and 4 Neutropenic Fever” value ([3]; Cycle 1, 70 mg/m^2/day, N=4) was 25%. For the same compound, the “recommended phase 11 dose” value ([3]; SSM oral irinotecan, for 5 days every 3 wks) was 60 mg/m^2/daily, the “DLT (kind and grade)” value ([3]; Stage A, 50 mg/m^2/day oral) was “G3 diarrhea, G3 nausea, G3 dehydration; also recorded: Gr. 3 Nausea; also recorded: Gr. 3 Diarrhea; also recorded: Gr. 3 Dehydration” and the “Pts with DLT” value ([3]; Stage A, 50 mg/m^2/day oral, 7 evaluable) was 1/7 and 1. For the same compound, the “DLT (kind and grade)” value ([3]; Stage A, 60 mg/m^2/day oral) was “None”, the “Pts with DLT” value ([3]; Stage A, 60 mg/m^2/day oral, 8 evaluable) was 0/8 and 0 and the “DLT (kind and grade)” value ([3]; Stage A, 70 mg/m^2/day oral) was “G3 diarrhea, G4 ANC [absolute neutrophil counts]; G4 diarrhea, fever, dehydration, fatigue; also recorded: Pt 1: gr. 3 Diarrhea,; also recorded: Pt 2: gr. 4 Diarrhea,; also recorded: gr. 4 Dehydration”. For the same compound, the “Pts with DLT” value ([3]; Stage A, 70 mg/m^2/day oral, 4 evaluable) was 2/4 and 2, the “DLT (kind and grade)” value ([3]; Stage B, 60 mg/m^2/day oral) was “Pt 1: Gr. 3 Diarrhea; also recorded: Pt 2: Gr. 3 Dehydration; also recorded: Pt 7: Gr. 3 Diarrhea” and the “Pts with DLT” value ([3]; Stage B, 60 mg/m^2/day oral, 24 evaluable) was 7. It also gave an MTD ([3]; oral, encapsulated semi-solid matrix, daily x5 q 3 weeks) of 60 mg/m^2/day, a bioavailability ([1]; human, in vivo, Absolute bioavailabiity of irinotecan, Mean ± SD) of 24 ± 23% and a bioavailability ([1]; human, in vivo, Absolute bioavailabiity of irinotecan, Median) of 15.4%. The bioavailability ([1]; human, in vivo, Absolute bioavailabiity of irinotecan, range) was 7.1 to 96%, the Tmax ([1]; human, in vivo, iv, 60 mg/m2) was “End of 1.5-h” and the AUC(0-inf) ([1]; human, in vivo, iv, mean ± SD) was 3020 ± 830 ng·h/mL. The AUC(0-inf) ([1]; human, in vivo, iv, median) was 2610 ng·h/mL, the AUC(0-inf) ([1]; human, in vivo, iv, range) was 1720 to 4790 ng·h/mL and the Cmax ([1]; human, in vivo, iv, mean ± SD) was 627 ± 142 ng/mL. For the same compound, the Cmax ([1]; human, in vivo, iv, median) was 593 ng/mL, the Cmax ([1]; human, in vivo, iv, range) was 416 to 897 ng/mL and the “tmax, mean ± SD” value ([1]; human, in vivo, po, 60 mg/m2) was 3.15 ± 2.00 h. It also gave an AUC(0-inf) ([1]; human, in vivo, po, mean ± SD) of 732 ± 665 ng·h/mL, an AUC(0-inf) ([1]; human, in vivo, po, median) of 619 ng·h/mL and an AUC(0-inf) ([1]; human, in vivo, po, range) of 167 to 2500 ng·h/mL. The Cmax ([1]; human, in vivo, po, mean ± SD) was 73.1 ± 67.6 ng/mL, the Cmax ([1]; human, in vivo, po, median, plasma, irinotecan 60 mg/m^2 PO, N=14) was 60.1 ng/mL and the Cmax ([1]; human, in vivo, po, range, plasma, irinotecan 60 mg/m^2 PO, N=14) was 9.49 to 274 ng/mL. For the same compound, the Tmax ([1]; human, in vivo, po, 60 mg/m2, tmax, mean ± SD) was 3 ± 2.2 h, the Tmax ([1]; human, in vivo, po, 60 mg/m2, tmax, range) was 1 to 10 h and the bioavailability ([1]; human, in vivo, po, absolute bioavailability (mean±SD)) was 25 ± 23%. The “best overall tumor response: partial responses” value ([4]; esophageal and small cell lung cancer) was “Two confirmed partial responses”, the “best overall tumor response: stable disease cases” value ([4]; variety of tumor types) was “thirteen stable disease cases” and the AUC(0-inf) ([5]; in vivo, iv) was 42000 ng·h/mL. For the same compound, the Cmax ([5]; in vivo, iv) was 1500 ng/mL, the AUC(0-inf) ([5]; plasma, po, 60 mg/m^2/daily) was 7320 ng·h/mL and the Cmax ([5]; plasma, po, 60 mg/m^2/daily) was 73.1 ng/mL.
